EP4501942A1, “PEPTIDOMIMETICS WITH ANTIVIRAL ACTIVITY” (priority 2023, dated 2025)
Like-named read-outs stand apart in the source and are kept apart here.

Assays:
SARS-CoV-2 M^pro protein = SARS-CoV-2 M^pro protein (Severe acute respiratory syndrome coronavirus 2, UniProt P0DTD1); assay: biochemical; conditions: for IC50: isolated SARS-CoV-2 M^pro, three separate experiments in duplicate, read-out: IC50, mean±SD
[1] = system: GFP-expressing recombinant vesicular stomatitis virus (VSV-GFP); assay: microbe, parasite or virus in culture; type: cell-based; conditions: A549-ACE2, 16 h
SARS-CoV-2 = assay: microbe, parasite or virus in culture; type: cell-based; conditions: Severe acute respiratory syndrome coronavirus 2, SARS-CoV-2, A549-ACE2 cells, MOI 0.005, 48 h; for EC50: read-out: EC50; for EC90: read-out: EC90
in vitro [2] = assay: in vitro
[3] = Cytotoxicity MTT assay in uninfected A549-ACE2 cells; type: cell-based; conditions: human
Procedure: To evaluate the cytotoxicity profile of the compounds MTT assays were performed in A549-ACE2 cells. Uninfected cells were incubated with a range of compound concentrations (from 100 to 1 µM) for forty-eight hours, time at which the MTT substrate [3-(4,5-dimethylthiazol-2-yl)-2,5-diphenyltetrazolium bromide] was added and the formation of formazan precipitates was evaluated two hours later, using a colorimetric readout. Vehicle-treated (DMSO) cells were used as reference (100 %).

in vitro [4] = conditions: human

Compound	IC50 (SARS-CoV-2 M^pro protein)	EC50 [1]	EC90 [1]	EC50 (SARS-CoV-2)	EC90 (SARS-CoV-2)	CC50 (in vitro [2])	CC50 at 48 h [3]	CC50 (in vitro [4])	inhibition at 10 µM (SARS-CoV-2 M^pro protein; read-out: % of inhibition at 10 µM)
CC(C)[C@H](NC(=O)OC(C)(C)C)C(=O)N1C[C@@H](C)[C@@]1(CC1CCCCC1)C(=O)N[C@H](C#N)C[C@@H]1CCNC1=O [Example 36]	0.19 ± 0.01 µM	> 50 µM	> 50 µM	2 µM	4 µM	> 50 µM	> 100 µM	> 50 µM	–
C[C@@H]1CN(C(=O)[C@@H](NC(=O)OC(C)(C)C)C(C)(C)C)[C@]1(Cc1ccccc1)C(=O)N[C@H](C#N)C[C@@H]1CCNC1=O [Example 14]	0.3 ± 0.03 µM	> 50 µM	> 50 µM	1 µM	3 µM	> 50 µM	> 100 µM	> 50 µM	–
CC(C)[C@H](NC(=O)OC(C)(C)C)C(=O)N1C[C@@H](C)[C@@]1(Cc1ccccc1)C(=O)N[C@H](C#N)C[C@@H]1CCNC1=O [Example 6]	0.07 ± 0.01 µM	> 50 µM	> 50 µM	1 µM	3 µM	> 50 µM	> 100 µM	> 50 µM	–
CCCC[C@@H](C#N)NC(=O)[C@]1(CC(C)C)[C@H](C)CN1C(=O)[C@@H](NC(=O)NC(C)(C)C)C(C)(C)C [Example 25, ^tBuNHCO-L-Tbg-(αS,β'R)-Azl-NH-[(1S)-1-cyano]pentane]	–	> 50 µM	> 50 µM	–	–	> 50 µM	–	> 50 µM	0%
C[C@@H]1CN(C(=O)[C@@H](NC(=O)OC(C)(C)C)C(C)(C)C)[C@]1(Cc1ccccc1)C(=O)N[C@H](C=O)C[C@@H]1CCNC1=O [Example 29, Boc-L-Tbg-(αS,β'R')-Azf-L-Ala(3S-2-oxopyrrolidin-3-yl)-H]	0.027 ± 0.006 µM	> 50 µM	> 50 µM	1 µM	2 µM	> 50 µM	> 100 µM	> 50 µM	–
